This note sets out measurements from article PMC10622836, “Crystal structure of histone deacetylase 6 complexed with (R)-lipoic acid, an essential cofactor in central carbon metabolism” (The Journal of Biological Chemistry, 2023).

Structures are written as SMILES.

The experiment deals with T1, HDAC6 (histone deacetylase 6) (Danio rerio, UniProt F8W4B7).
T1 construct: catalytic domain 2
T1 sequence (F8W4B7 440-798 limits assumed): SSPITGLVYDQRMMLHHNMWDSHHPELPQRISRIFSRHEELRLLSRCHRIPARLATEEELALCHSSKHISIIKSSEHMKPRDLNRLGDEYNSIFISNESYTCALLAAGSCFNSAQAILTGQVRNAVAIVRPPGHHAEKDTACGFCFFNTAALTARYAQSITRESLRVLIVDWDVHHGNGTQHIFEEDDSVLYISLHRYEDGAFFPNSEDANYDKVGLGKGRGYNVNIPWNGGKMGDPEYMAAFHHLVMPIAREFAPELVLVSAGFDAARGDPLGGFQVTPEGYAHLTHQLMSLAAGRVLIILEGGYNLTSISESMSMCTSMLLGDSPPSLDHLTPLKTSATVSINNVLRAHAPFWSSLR
Description: X-ray crystal structure ([…] Å) and ITC. Format: binding.

The term Kd denotes the free concentration of one partner at which half of the binding sites on the other are occupied at equilibrium, for simple one-to-one binding. The compound `O=C(O)CCCC[C@@H](S)CCS` [(R)-dihydrolipoic acid] yielded a Kd of 350 nM. That is a sub-micromolar value.
